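Exposure lasted 48 hours, with cells grown in 96-well plates and compounds tested at five concentrations. Abbreviation: GI50, concentration required for 50% inhibition of growth. At the TGI there is no net growth.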
Experiments:
Assay in all cases: inhibition of tumour cell growth, NCI panel, 48 h
NCI-H23 lung = test system: NCI-H23 lung
NCI/ADR-RES ovarian = test system: NCI/ADR-RES ovarian
K-562 leukemia = test system: K-562 leukemia
HCT-116 colon = test system: HCT-116 colon
SW-620 colon = test system: SW-620 colon
NCI-H226 lung = test system: NCI-H226 lung
UACC-257 melanoma = test system: UACC-257 melanoma
COLO 205 colon = test system: COLO 205 colon
HCC-2998 colon = test system: HCC-2998 colon
KM12 colon = test system: KM12 colon
MDA-MB-231 breast = test system: MDA-MB-231 breast
CAKI-1 renal = test system: CAKI-1 renal
786-0 renal = test system: 786-0 renal
ACHN renal = test system: ACHN renal
MDA-MB-435 = test system: MDA-MB-435
MDA-N = test system: MDA-N
PC-3 prostate = test system: PC-3 prostate
HS 578T breast = test system: HS 578T breast

| SMILES | TGI (NCI-H23 lung) | TGI (NCI/ADR-RES ovarian) | TGI (K-562 leukemia) | TGI (HCT-116 colon) | TGI (SW-620 colon) | TGI (NCI-H226 lung) | TGI (UACC-257 melanoma) | TGI (COLO 205 colon) | TGI (HCC-2998 colon) | TGI (KM12 colon) | TGI (MDA-MB-231 breast) | TGI (CAKI-1 renal) | TGI (786-0 renal) | TGI (ACHN renal) | TGI (MDA-MB-435) | TGI (MDA-N) | GI50 (K-562 leukemia) | TGI (PC-3 prostate) | TGI (HS 578T breast) |
| --- | --- | --- | --- | --- | --- | --- | --- | --- | --- | --- | --- | --- | --- | --- | --- | --- | --- | --- | --- |
| O=[N+]([O-])c1cccc2c1[nH]c1c(-c3ccccc3)nccc12 | 8.48 µM | 4.44 µM | > 100 µM | 11.2 µM | > 36.9 µM | 5.33 µM | 6.29 µM | 4.23 µM | 13.9 µM | 12.3 µM |  |  |  |  |  |  |  |  |  |
| O=C(Nc1nc2ccc([N+](=O)[O-])cc2s1)c1cc([N+](=O)[O-])ccc1Cl | 6.92 µM | 8.23 µM |  | 5.33 µM | 5.59 µM | 7.24 µM | 19.2 µM | 3.65 µM |  | 50.5 µM | 21.3 µM | 24.3 µM | 11.7 µM | 13.7 µM | 16.4 µM | 5.04 µM |  |  |  |
| NNC(=O)COc1nc(-c2cccs2)nc2ccc(I)cc12 | 41.2 µM | 91.9 µM | > 100 µM | 36.3 µM | > 100 µM | 83.9 µM |  | 70.9 µM | 63.9 µM | 41.5 µM |  | 44.1 µM | 78.8 µM | 74.2 µM | 47 µM | > 100 µM | 37 µM | > 100 µM |  |
| NS(=O)(=O)c1cc2c(cc1Cl)NC(C(=O)NNC(=O)c1ccncc1)=NS2(=O)=O | > 100 µM |  |  | > 100 µM | > 100 µM | > 100 µM | > 100 µM | > 100 µM | > 100 µM | > 100 µM |  | > 100 µM | > 100 µM | > 100 µM |  |  |  |  |  |
| Cn1c(=O)c2c(n(C)c1=O)n1c(=O)c3ccccc3nc1n2C | > 100 µM | > 100 µM | > 100 µM | > 100 µM | > 100 µM | 73.2 µM | > 100 µM | > 100 µM | > 100 µM | > 100 µM | > 100 µM | > 100 µM | > 100 µM | > 100 µM | > 100 µM |  |  | > 100 µM | > 100 µM |
| COc1ccc(-c2cc(-c3ccc(Nc4ccnc5cc(C(F)(F)F)ccc45)cc3)nc(N)c2C#N)c2ccccc12 | > 100 µM | > 100 µM |  | > 100 µM | > 100 µM |  |  | > 100 µM | > 100 µM | > 100 µM | > 100 µM | > 100 µM | > 100 µM | > 100 µM | > 100 µM |  |  | > 100 µM | > 100 µM |
| Cc1c(N(Cc2ccccc2)Cc2ccccc2)nc(S(C)(=O)=O)nc1S(C)(=O)=O | 3.35 µM |  | 4.83 µM | 3.02 µM | 3.61 µM | 25.8 µM | 3.76 µM |  | 3.2 µM |  |  | 20.2 µM |  | 16.4 µM |  |  |  |  |  |
| Cn1c(=O)c(C#N)c(O)c2cc3ccccc3nc21 | > 100 µM |  | > 100 µM | > 100 µM | > 100 µM | > 100 µM | > 100 µM | > 100 µM | > 100 µM | > 100 µM |  | > 100 µM |  | > 100 µM |  |  |  |  |  |
| Nn1c(=S)[nH]nc(/C=C/c2c(O)ccc3ccccc23)c1=O | 11 µM | 14.4 µM | > 100 µM | 12.5 µM | > 100 µM |  | 50.9 µM | 27.7 µM | 54.5 µM | 59.5 µM |  | 36.1 µM | > 100 µM | 51.7 µM | > 100 µM | > 100 µM |  | > 100 µM |  |
| Nc1cc(O)c2cc(N=Nc3ccc(N=Nc4ccc(N=Nc5ccc6cc(S(=O)(=O)O)cc(S(=O)(=O)O)c6c5)c5ccccc45)c4cc(S(=O)(=O)O)ccc34)c(S(=O)(=O)O)cc2c1 | > 100 µM | > 100 µM | > 31.6 µM | > 100 µM | > 100 µM | > 93.3 µM | > 100 µM | > 100 µM | > 100 µM | > 100 µM |  |  |  |  |  |  |  |  |  |
| COc1cc(O)c2c(=O)c(O)c(-c3ccc(O)c(O)c3)oc2c1 |  | 32.9 µM | > 100 µM | 45.5 µM | 53.7 µM |  | 46.1 µM | 32.5 µM | 34.1 µM |  | 95.8 µM | 15.6 µM |  | 24.9 µM | 85.5 µM | > 100 µM |  | > 100 µM |  |
| CC1=C(C(=O)OC(C)(C)C)C(c2ccc([N+](=O)[O-])cc2)C(C(=O)OC(C)(C)C)=C(C)N1 | 45.3 µM |  | 54 µM | 36.4 µM | 54 µM | 39.1 µM | 40.6 µM | 39.8 µM | 27.2 µM | 38.5 µM | 41.4 µM | 56.4 µM | 38.7 µM | 41.3 µM | 57.9 µM | 48.6 µM |  | 45.1 µM | 43.4 µM |
| Nc1nc(Nc2cc(F)c(Cl)c(F)c2)cc(=O)[nH]1 | > 100 µM | > 100 µM |  | > 100 µM | > 100 µM | > 100 µM | > 100 µM | > 100 µM | 61.5 µM | > 100 µM | > 100 µM | > 100 µM | > 100 µM | > 100 µM | > 100 µM |  |  | > 100 µM | 66.5 µM |
| Cc1ccc(C)c(C(=O)CC2OC(O)C(Cl)C2Cl)c1 (stereo not given) | > 100 µM |  | > 100 µM | > 100 µM | 33.5 µM | > 100 µM | > 100 µM | > 100 µM | > 100 µM | > 100 µM |  | 84.4 µM |  | > 100 µM |  |  |  |  |  |
| N#Cc1c2c(c(Nc3ccc(Cl)cc3)n3c1nc1ccccc13)CCCC2 | > 100 µM | > 100 µM | > 100 µM | > 100 µM | > 100 µM | > 100 µM | > 100 µM | > 100 µM | > 100 µM | > 100 µM | > 100 µM | > 100 µM | > 100 µM | > 100 µM | > 100 µM |  |  | > 100 µM | > 87.4 µM |
| COC(=O)C1=C(C)C(=O)C2(CCCCCC2C(=O)OC)C1 (stereo not given) | > 100 µM |  | > 100 µM | > 100 µM | > 100 µM | > 100 µM | > 100 µM | > 100 µM | > 100 µM | > 100 µM |  | > 100 µM | > 100 µM | > 100 µM |  |  |  |  |  |
| CCN(CC)CCCNc1nnc(C)c2[nH]c3ccccc3c12 | 38.8 µM | > 100 µM | > 100 µM | 69.4 µM | > 100 µM |  | 31.8 µM | 13.1 µM | 22.2 µM | > 100 µM | 39.5 µM | > 100 µM | 94 µM | 59.9 µM | 25.9 µM | 29.2 µM |  | 45.2 µM | 38 µM |
| CCCCC(C)(C/C=C/[C@@H]1[C@@H](C(O)CCCCCC(=O)OC)C(=O)C[C@H]1O[Si](C)(C)C(C)(C)C)O[Si](C)(C)C (stereo not given in full) | > 100 µM | > 100 µM | > 100 µM | > 100 µM | > 100 µM | > 100 µM | > 100 µM | > 100 µM | > 100 µM | > 100 µM | > 100 µM | 78.1 µM | > 100 µM | > 100 µM | > 100 µM |  |  | > 100 µM |  |
| CCCCN1/C(=N/Nc2n[nH]c(=O)c3ccccc23)SCC1c1ccc(Cl)cc1 (stereo not given) | 14.7 µM | 47 µM | > 100 µM | 44.8 µM | 53 µM | 27.5 µM | 45.6 µM | > 100 µM |  | 19.6 µM | 55 µM | 77.4 µM | 42.2 µM | > 100 µM | 31.9 µM |  |  | > 100 µM | 56.2 µM |
| CNC(=O)N(C)C(=O)c1ccccc1C(=O)N(C)C(=O)NC | > 10 µM | > 10 µM | > 10 µM | > 10 µM | > 10 µM | > 10 µM | > 10 µM | > 10 µM | > 10 µM | > 10 µM | > 10 µM | > 10 µM | > 10 µM | > 10 µM |  | > 10 µM |  | > 10 µM | > 10 µM |
| CSC(=NCCCN=C(NS(=O)(=O)c1ccc(Cl)cc1)SC)NS(=O)(=O)c1ccc(Cl)cc1 |  | > 100 µM | > 100 µM | > 100 µM | > 100 µM |  | > 100 µM | 51.6 µM | 83.6 µM |  | > 100 µM | > 100 µM | > 100 µM | > 100 µM | > 100 µM | 61.4 µM |  | 35.2 µM |  |
| Oc1[nH]c2ccccc2c1N=Nc1nc(-c2ccccc2)cs1 | > 100 µM | 83 µM |  | > 100 µM | > 100 µM | > 100 µM | > 100 µM | > 100 µM | > 100 µM | > 100 µM | 99.7 µM | 39.8 µM | > 100 µM | > 100 µM | > 100 µM | > 100 µM |  | 51.8 µM |  |
| COc1ccc(Sc2ccccc2[N+](=O)[O-])cc1 | > 100 µM |  | > 100 µM | > 100 µM | > 100 µM | 45.8 µM | > 100 µM | 29.7 µM | 62.1 µM | > 100 µM |  |  |  |  |  |  |  |  |  |
| O=C(c1ccccc1)n1c2ccc(Br)cc2c2nc3ccccc3nc21 | > 100 µM | > 100 µM | > 100 µM | > 100 µM | > 100 µM | > 100 µM | > 100 µM | > 100 µM | > 100 µM | > 100 µM | > 100 µM | > 100 µM | > 100 µM | > 100 µM | > 100 µM | > 100 µM |  | > 100 µM |  |

From PubChem BioAssay (NCI)
